Assay results published in PubChem BioAssay (NCI).
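96-well plates; 48 h exposure; 5 concentrations. Endpoints by linear interpolation between flanking doses. Not reached: highest tested concentration assigned. At the TGI there is no net growth.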

Legend:
Assay in all cases: NCI-60 cell line screen, 48 h
HL-60(TB) leukemia = tested on: HL-60(TB) leukemia
NCI-H226 lung = tested on: NCI-H226 lung
HCT-15 colon = tested on: HCT-15 colon
HT29 colon = tested on: HT29 colon
A498 renal = tested on: A498 renal
RPMI-8226 leukemia = tested on: RPMI-8226 leukemia
HOP-92 NSCLC = tested on: HOP-92 NSCLC
HOP-62 NSCLC = tested on: HOP-62 NSCLC
EKVX NSCLC = tested on: EKVX NSCLC
ACHN renal = tested on: ACHN renal
NCI-H460 lung = tested on: NCI-H460 lung
LOX IMVI melanoma = tested on: LOX IMVI melanoma
OVCAR-4 ovarian = tested on: OVCAR-4 ovarian
OVCAR-5 ovarian = tested on: OVCAR-5 ovarian
UO-31 renal = tested on: UO-31 renal
KM12 colon = tested on: KM12 colon
CAKI-1 renal = tested on: CAKI-1 renal
SW-620 colon = tested on: SW-620 colon
SN12C renal = tested on: SN12C renal
U251 CNS = tested on: U251 CNS
SR leukemia = tested on: SR leukemia
NCI-H23 lung = tested on: NCI-H23 lung
DMS 273 small cell lung = tested on: DMS 273 small cell lung
MOLT-4 leukemia = tested on: MOLT-4 leukemia
A549 NSCLC = tested on: A549 NSCLC
UACC-62 melanoma = tested on: UACC-62 melanoma
SNB-19 CNS = tested on: SNB-19 CNS
786-0 renal = tested on: 786-0 renal
OVCAR-8 ovarian = tested on: OVCAR-8 ovarian
DMS 114 small cell lung = tested on: DMS 114 small cell lung
UACC-257 melanoma = tested on: UACC-257 melanoma
SNB-78 CNS = tested on: SNB-78 CNS
SK-MEL-2 melanoma = tested on: SK-MEL-2 melanoma
COLO 205 colon = tested on: COLO 205 colon
SK-OV-3 ovarian = tested on: SK-OV-3 ovarian
MALME-3M melanoma = tested on: MALME-3M melanoma
SK-MEL-28 melanoma = tested on: SK-MEL-28 melanoma
SF-295 CNS = tested on: SF-295 CNS
M19-MEL melanoma = tested on: M19-MEL melanoma
DLD-1 colon = tested on: DLD-1 colon
HOP-18 NSCLC = tested on: HOP-18 NSCLC
OVCAR-3 ovarian = tested on: OVCAR-3 ovarian
KM20L2 colon = tested on: KM20L2 colon
HCC-2998 colon = tested on: HCC-2998 colon
XF 498 CNS = tested on: XF 498 CNS
NCI-H522 lung = tested on: NCI-H522 lung
M14 melanoma = tested on: M14 melanoma
CCRF-CEM leukemia = tested on: CCRF-CEM leukemia
SK-MEL-5 melanoma = tested on: SK-MEL-5 melanoma
SNB-75 CNS = tested on: SNB-75 CNS
HCT-116 colon = tested on: HCT-116 colon
SF-268 CNS = tested on: SF-268 CNS
IGROV1 ovarian = tested on: IGROV1 ovarian
K-562 leukemia = tested on: K-562 leukemia
TK-10 renal = tested on: TK-10 renal
SF-539 CNS = tested on: SF-539 CNS
LXFL 529 NSCLC = tested on: LXFL 529 NSCLC

Measured: TGI

Ic1ncnc2c1ncn2C1CCCO1 (stereo not drawn)
not listed: LXFL 529 NSCLC
> 100 µM: all other assays above

Cc1cc(Cl)ccc1NC(=O)CCCC(=O)C1CCCC1=O (stereo not drawn)
not listed: HOP-92 NSCLC | HOP-62 NSCLC | SR leukemia | SK-MEL-28 melanoma | SNB-75 CNS
> 100 µM: all other assays above
